Values joined by “and” are separate entries in the source; they are usually repeats but may differ in a detail not shown here. Equal entries are not always repeated. “Also recorded” adds a separate entry of the source.
Legend:
[1] = Midostaurin PK when administered with ketoconazole; settings: for AUC(0-inf): AUC0–inf; for AUC(0-inf) / Cmax: adjusted geometric mean; for Cmax: C max; for half-life: t 1/2, adjusted geometric mean
Method: According to the US Food and Drug Administration, ketoconazole 400 mg once daily is the recommended dose to evaluate DDIs involving CYP3A4 inhibition. [drawing 1]
(§1) Adverse events (AEs) were recorded during the study and up to 1 month (28 days) after the end of study. Volunteers remained at the clinic until AEs were common toxicity criteria (CTC) grade ≤1.
A point estimate and the corresponding 90 % CI for the treatment effect were calculated for the test treatment compared with the reference. These were anti-logged to obtain the point estimate and the 90 % CI for the geometric mean ratio (GMR) on the untransformed scale. […] All ANOVAs were performed using SAS software (SAS Institute Inc., Cary, NC, USA).
(§2) The concentration of ketoconazole in plasma was assessed using a validated LC–MS/MS assay with an LLOQ of 50.0 ng/mL (WuXi Pharmatech Co, Ltd, China). The concentration of rifampicin in plasma was measured using a validated LC–MS/MS assay with an LLOQ of 5.0 ng/mL (SGS, Cephac Europe, SAS). Plasma concentrations of midazolam and its metabolite 1′-hydroxymidazolam, which is generated by CYP3A4 and CYP3A5 in humans, were measured using a validated LC–MS/MS assay with an LLOQ of ≈0.100 ng/mL (SGS, Cephac Europe, SAS). The plasma concentration of 4β-hydroxycholesterol was measured using a validated LC–MS/MS assay with an LLOQ of 3.0 ng/mL (SGS, Cephac Europe, SAS). The concentrations of 6β-hydroxycortisol and cortisol in urine were determined using validated LC–MS/MS assays with an LLOQ of 10.0 ng/mL for 6β-hydroxycortisol and 1.0 ng/mL for cortisol. The ratio of 6β-hydroxycortisol to cortisol was subsequently calculated (SGS, Cephac Europe, SAS). See Supplementary Table 2 for detailed bioanalytical methods for all 3 studies.

[2] = Midostaurin PK when administered with rifampicin; settings: for AUC(0-inf) / AUC(0-t) / Cmax / half-life: human, oral; for AUC(0-inf): AUC0–inf; for AUC(0-inf) / AUC(0-t) / Cmax: adjusted geometric mean; for AUC(0-t): AUC0–last; for Cmax: C max; for half-life: t 1/2, adjusted geometric mean
Method: These endogenous molecules served as exploratory biomarkers for CYP3A4 activity in vivo [21, 22].
A point estimate and the corresponding 90 % CI for the treatment effect (test vs reference) were calculated. These were anti-logged to obtain the GMR and respective 90 % CI. […] The median difference was estimated with the Hodges–Lehmann estimator and its respective exact two-sided 90 % CI. All formal comparative statistical analyses were performed using SAS software.
as §2

CYP3A4 [3] = experiment: CYP3A4 activity in vivo in midazolam study (probe and endogenous biomarkers); design: species or system human
Method: Both inhibition and induction of midazolam clearance were investigated.
Similarly, blood and urine samples were taken on days 1, 3, 6, 7, 8, and 9 to measure the levels of 4β-hydroxycholesterol in plasma and the 6β-hydroxycortisol/cortisol ratio in urine, markers of CYP3A4 activity.
as §2

[4] = Safety and tolerability, ketoconazole study; assay type: in vivo, human
Method: as §1

[5] = test system: human serum protein α1-acid glycoprotein (AAG); design: method as in PMID 11230495; settings: cited from earlier work
patients with ASM = settings: cited from earlier work
CYP3A4 [6] = settings: patients with ASM, 1–2 months of daily midostaurin dosing; cited from earlier work
[7] = cited from earlier work
[8] = Safety and tolerability, rifampicin study
[9] = human, plasma, oral, plasma, Ketoconazole + midostaurin arm, n = 18
[10] = human, plasma, oral, plasma, Placebo + midostaurin arm, ketoconazole study, n = 18
[11] = midostaurin 50 mg single dose, ketoconazole 400 mg daily
[12] = plasma, plasma, Placebo + midostaurin arm, rifampicin study, n = 20
[13] = plasma, plasma, Rifampicin + midostaurin arm, n = 20
[14] = ketoconazole study, both arms pooled (N = 47)
[15] = ketoconazole study: Mido 50 mg (n = 20) or Mido 50 mg + Keto 400 mg (n = 27)
[16] = phase II, 100 mg twice daily, 26 patients with ASM
[17] = stage 1 analysis, global phase II study, ASM or mast cell leukemia
[18] = rifampicin study: Mido 50 mg + Rifa 600 mg (n = 25) or Mido 50 mg (n = 21)

## CO[C@@H]1[C@H](N(C)C(=O)c2ccccc2)C[C@H]2O[C@]1(C)n1c3ccccc3c3c4c(c5c6ccccc6n2c5c31)C(=O)NC4 [Midostaurin]
[1]; 1 − AUCinf (without ketoconazole)/AUCinf (with ketoconazole)
  fraction of midostaurin metabolized by CYP3A4 (FmCYP3A4): 91%
[1]; co-administration with ketoconazole
  DDI classification (PhRMA proposal for drugs biotransformed via CYP3A4): strong
[1]; compared with placebo
  elimination t 1/2 in the presence of ketoconazole: prolonged
[1]; human, plasma, oral, plasma, Ketoconazole + midostaurin arm (midostaurin 50 mg once, ketoconazole 400 mg daily), n = 18
  AUC(0-inf): 206 µg·h/mL
[1]; human, plasma, oral, plasma, Placebo + midostaurin arm (midostaurin 50 mg once), ketoconazole study, n = 18
  AUC(0-inf): 19.8 µg·h/mL
[1]; [9]
  Cmax: 2.89 µg/mL
  half-life: 90.6 h
[1]; [10]
  Cmax: 1.59 µg/mL
  half-life: 23.3 h
[1]; human, plasma, oral, t max, median, plasma, Ketoconazole + midostaurin arm, n = 18
  Tmax: 1.5 h
[1]; ketoconazole + midostaurin vs placebo + midostaurin
  t max, Hodges–Lehmann estimate of median difference (90 % distribution-free CI): 0.5 (0, 0.5) h
[1]; [11]
  increase in AUC (exposure) with ketoconazole compared with placebo: more than tenfold; also recorded: tenfold
  increase in C max with ketoconazole compared with placebo: ≈ 1.8 fold and 1.8 fold
[2]; compared with midostaurin administered alone
  increase in geometric mean of apparent clearance with rifampicin: 16.9 fold
[2]; plasma, plasma, Placebo + midostaurin arm (midostaurin 50 mg once), rifampicin study, n = 20
  AUC(0-inf): 22.8 µg·h/mL
[2]; plasma, plasma, Rifampicin + midostaurin arm (midostaurin 50 mg once, rifampicin 600 mg daily), n = 20
  AUC(0-inf): 1.35 µg·h/mL
[2]; [12]
  AUC(0-t): 22 µg·h/mL
  Cmax: 1.62 µg/mL
  half-life: 23 h
[2]; [13]
  AUC(0-t): 1.23 µg·h/mL
  Cmax: 0.44 µg/mL
  half-life: 5.14 h
[2]; midostaurin 50 mg single dose, rifampicin 600 mg daily
  decrease in exposure by induction of CYP3A4 by rifampicin: more than tenfold
[2]; plasma, Placebo + midostaurin arm, rifampicin study, n = 20
  t max, median: 1.02 h
CYP3A4 [3]; humans, single dose 100 mg and 50 mg twice daily
  inhibition or induction of CYP3A4 in vivo: neither an inhibitor nor inducer; also recorded: neither a CYP3A4 inhibitor nor a CYP3A4 inducer
CYP3A4 [3]; single or multiple doses of midostaurin
  effect on concentrations of midazolam and 1′-hydroxymidazolam: did not appreciably affect
[4]; all 3 studies, single agent or in combination, healthy volunteers
  tolerability: generally well tolerated
[4]; ketoconazole study, both arms pooled
  intensity of AEs: mild
[4]; [14]
  participants who discontinued the study because of AEs: 15%
  serious AEs: no serious AEs
[4]; [15]
  Adverse event: Abdominal distension: 0 n (%)
  Adverse event: Any preferred term: 13 (65.0) n (%)
  Adverse event: Back pain: 0 n (%)
  Adverse event: Chromaturia: 0 n (%)
  Adverse event: Cough: 0 n (%)
  Adverse event: Diarrhea: 4 (20.0) n (%)
  Adverse event: Discolored feces: 0 n (%)
  Adverse event: Dizziness: 5 (25.0) n (%)
  Adverse event: Dry skin: 0 n (%)
  Adverse event: Dyspepsia: 0 n (%)
  Adverse event: Feeling cold: 2 (10.0) n (%)
  Adverse event: Feeling hot: 0 n (%)
  Adverse event: Flatulence: 0 n (%)
  Adverse event: Headache: 2 (10.0) n (%)
  Adverse event: Hot flush: 0 n (%)
  Adverse event: Nasopharyngitis: 0 n (%)
  Adverse event: Nausea: 7 (35.0) n (%)
  Adverse event: Palpitations: 0 n (%)
  Adverse event: Pharyngolaryngeal pain: 0 n (%)
  Adverse event: Restlessness: 0 n (%)
  Adverse event: Rhinitis: 1 (5.0) n (%)
  Adverse event: Sleep disorder: 0 n (%)
  Adverse event: Somnolence: 0 n (%)
  Adverse event: Vomiting: 1 (5.0) n (%)
[5]
  bound to AAG: 88–98%
Patients with ASM; phase II investigator-initiated study, 100 mg twice daily, 26 patients with ASM
  response rate according to Valent criteria: 69%
Patients with ASM; [16]
  good partial responses (number of patients): 5
  incomplete remissions (number of patients): 6
  major responses (number of patients): 10
  minor partial responses (number of patients): 3
  pure clinical responses (number of patients): 4
Patients with ASM; [17]
  major response: 53%
  overall response rate: 60%
CYP3A4 [6]
  change in level of endogenous CYP3A4 biomarker 4-β-hydroxycholesterol in plasma: significant increase
[7]
  free midostaurin concentrations: 0.02 to 1 µM
  major pathway for elimination: Fecal excretion
[7]; daily oral dosing
  period of time-linear accumulation: 3 to 6 days
  time to new plateau of plasma concentrations: 2–3 weeks
[7]; healthy volunteers
  mean apparent volume of distribution: 111 L
[7]; human, in vivo, po
  time of peak plasma concentrations postdose: 1 to 3 h
[7]; single-dose administration
  dose proportionality of C max and AUC: increased proportionally with dose following single-dose administration of midostaurin between 25- and 50-mg doses but under proportionally between 50- and 100-mg doses
[8]; rifampicin study, by arm
  diarrhea: 33%
  nausea: 38%
  participants who experienced an AE: 62%
[8]; [18]
  Adverse event: Abdominal distension: 0 n (%)
  Adverse event: Any preferred term: 13 (61.9) n (%)
  Adverse event: Back pain: 1 (4.8) n (%)
  Adverse event: Chromaturia: 0 n (%)
  Adverse event: Cough: 0 n (%)
  Adverse event: Diarrhea: 7 (33.3) n (%)
  Adverse event: Discolored feces: 0 n (%)
  Adverse event: Dizziness: 0 n (%)
  Adverse event: Dry skin: 0 n (%)
  Adverse event: Dyspepsia: 0 n (%)
  Adverse event: Feeling cold: 0 n (%)
  Adverse event: Feeling hot: 0 n (%)
  Adverse event: Flatulence: 1 (4.8) n (%)
  Adverse event: Headache: 1 (4.8) n (%)
  Adverse event: Hot flush: 0 n (%)
  Adverse event: Nasopharyngitis: 2 (9.5) n (%)
  Adverse event: Nausea: 8 (38.1) n (%)
  Adverse event: Palpitations: 0 n (%)
  Adverse event: Pharyngolaryngeal pain: 0 n (%)
  Adverse event: Restlessness: 0 n (%)
  Adverse event: Rhinitis: 0 n (%)
  Adverse event: Sleep disorder: 0 n (%)
  Adverse event: Somnolence: 0 n (%)
  Adverse event: Vomiting: 1 (4.8) n (%)

— publication PMC3834177 (Cancer Chemotherapy and Pharmacology, 2013)
